Data reported in patent US4652548A (Eli Lilly and Company, priority 1984, dated 1987).

Columns and labels:
[1] = Euglycemic glucose-clamp: steady state serum hormone levels; assay type: in vivo, human
Experimental: (§1) J. Physiol. 237:E214-E223 (1979). With this technique, an antecuubital vein is cannulated in an antegrade manner to administer the infusates. A dorsal hand vein is cannulated in a retrograde fashion and kept in a warming device (70° C.) to facilitate venous sampling and provide arterialized venous blood After insertion of the catheters, [3-3H]-glucose is infused for at least 30 minutes before initiating the hormone infusion. At the onset of hormone infusion, a priming dose of either insulin or proinsulin is administered during the initial 10 minutes in a logarithmically decreasing manner to acutely raise the serum hormone level. The amount of insulin or proinsulin given during this initial 10 minute period is roughly twice that given during each subsequent 10 minute interval by a continuous hormone infusion The serum glucose is maintained between 80 and 90 mg/dl throughout the study period with a coefficient of variation of less than 5% by means of a variable rate of infusion of 20% dextrose. The overall glucose disposal rate is assessed isotopically for each 20 minute interval of the study.
Each subject underwent a total of 8 euglycemic glucose clamp studies, each performed on a separate day. Insulin infusion rates of 15, 40, 120, and 240 mU/M2/min were utilized to construct a dose response curve for insulin action. With this approach an attempt was made to achieve steady state insulin concentrations of 40 to 800 μU/ml (Table 1). Each subject was also studied with four different proinsulin infusions. […] Hepatic glucose output was quantitated in the basal state and during each clamp study using a primed continuous infusion of [3-3H]glucose. […] The dose response relationship for insulin and proinsulin mediated suppression of hepatic glucose output was determined by calculating the percent suppression of basal hepatic glucose output at each steady state hormone concentration obtained during the euglycemic clamp studies.

hepatic glucose output = assay: Euglycemic glucose-clamp: suppression of hepatic glucose output; assay type: in vivo, human
Experimental: as §1, with “The amount of insulin or proinsulin given during this initial 10 minute period is roughly twice that given during each subsequent 10 minute interval by a continuous hormone infusion The serum glucose is maintained between 80 and 90 mg/dl throughout the study period with a coefficient of variation of less than 5% by means of a variable rate of infusion of 20% dextrose.” left out
Each subject underwent a total of 8 euglycemic glucose clamp studies, each performed on a separate day. […] Hepatic glucose output was quantitated in the basal state and during each clamp study using a primed continuous infusion of [3-3H]glucose. […] The dose response relationship for insulin and proinsulin mediated suppression of hepatic glucose output was determined by calculating the percent suppression of basal hepatic glucose output at each steady state hormone concentration obtained during the euglycemic clamp studies.

glucose disposal = assay: Euglycemic glucose-clamp: glucose disposal rate; assay type: in vivo, human
Experimental: On one day, each subject received a 5.0 μg/M^2 /min (120 mU/M^2 /min) insulin infusion over a 6 hour period. […] Each proinsulin infusion was carried out for 300 minutes, with the quantitation of its biological effects based on measurements made during the 5th hour of each study. […]

[2] = after stopping 5 hour infusion
Text: (§2) At this point, the hormone infusion was abruptly stopped, and the glucose concentration was maintained constant until the biologic effects of the infused hormone were no longer detectable.

[3] = tested on: peripheral glucose uptake; assay: Kinetics of activation and deactivation of effect on peripheral glucose uptake; assay type: in vivo, human
Text: Marked differences between the two hormones were noted when biologic activity was studied.
as §2

[4] = tested on: hepatic glucose output (HGO); assay: Kinetics of deactivation of effect on hepatic glucose output (HGO); assay type: in vivo, human
Text: as §2

[5] = tested on: hepatic glucose production; assay: Subcutaneous administration to Type II diabetic subjects: hepatic glucose production; assay type: in vivo, human; conditions: 0.2 U/kg s.c.
[6] = tested on: fasting Type II diabetic patients; assay: Subcutaneous administration to fasting Type II diabetic patients: plasma glucose; assay type: in vivo, human; conditions: for Plasma Glucose, Mean: mean total dose 18.7 I.U. (0.2 U/kg s.c.); for Plasma Glucose: subject four, total dose 16.3 I.U. (0.2 U/kg s.c.)
[7] = Study A (insulin 15 mU/M^2/min, proinsulin 2.75 μg/M^2/min), Mean ± SE
[8] = after stopping 5 hour infusion (human insulin 0.55, human proinsulin 2.75 μg/M2/min)

**Q.** With “human proinsulin: human proinsulin, available by organic synthesis, isolation from human pancreas or recombinant DNA methodology” as the substance, how does the “Steady State Hormone Levels (Mean ± SEM)” value ([1]; infusion A: insulin 0.63, proinsulin 2.75 μg/M^2/min) read?
**A.** 2.55 ± 0.16 pmol/mL

**Q.** And the “Steady State Hormone Levels (Mean ± SEM)” value ([1]; infusion B: insulin 1.67, proinsulin 7.5 μg/M^2/min)?
**A.** 6.24 ± 0.49 pmol/mL

**Q.** What about the “Steady State Hormone Levels (Mean ± SEM)” value ([1]; infusion C: insulin 5.0, proinsulin 22.5 μg/M^2/min) of the same substance?
**A.** 21.2 ± 1.4 pmol/mL

**Q.** What about the “Steady State Hormone Levels (Mean ± SEM)” value ([1]; infusion D: insulin 10.0, proinsulin 45.0 μg/M^2/min) of the same substance?
**A.** 40.0 ± 1.9 pmol/mL

**Q.** What about the “Suppression of Hepatic Glucose Output (%)” value (hepatic glucose output; [7]) of the same substance?
**A.** 80 ± 6%

**Q.** And the “Serum hormone concentration required to achieve 90% suppression of hepatic glucose output” value (hepatic glucose output; healthy subjects, steady state, euglycemic clamp)?
**A.** 3.35 pmol/mL

**Q.** And the “Time to reach steady state rates of glucose disposal” value (glucose disposal; 5 subjects, insulin 5.0 μg/M^2/min over 6 h, proinsulin 22.5 μg/M^2/min over 8 h)?
**A.** ≤ 5 h

**Q.** And the “Glucose Disposal Rate” value (glucose disposal; [7])?
**A.** 122 ± 11 mg/M^2/min

**Q.** And the “Time by which hormone concentrations are below biologically effective values” [2]?
**A.** ≤ 90 minutes

**Q.** And the “Decay of biologic effect to stimulate glucose disposal, more slowly than human insulin” value ([3]; after stopping 5 hour infusion)?
**A.** 2.2 times

**Q.** And the “t 1/2 of deactivation of effects on glucose disposal” value [3, 8]?
**A.** 1.45 ± 0.233 h

**Q.** What about the “Time needed to reach steady state biologic effects compared to human insulin” value ([3]; both stimulation of glucose disposal and inhibition of HGO) of the same substance?
**A.** much slower

**Q.** What about the “Time to steady state effect to stimulate glucose disposal” value ([3]; continuous infusion) of the same substance?
**A.** 5 h

**Q.** What about the “Time until glucose disposal rates returned to basal” value ([3]; following cessation of 2.75 μg/M2/min infusion) of the same substance?
**A.** 160 min

**Q.** What about the “Time until a decline in effect to suppress HGO could be detected” value ([4]; after infusion stopped) of the same substance?
**A.** 120 min

**Q.** What about the “Time until HGO returned to baseline values, extrapolation of the curve” value ([4]; after stopping 5 hour infusion) of the same substance?
**A.** > 6 h

**Q.** And the “t 1/2 of deactivation of effect to inhibit HGO” value [4, 8]?
**A.** 3.83 ± 0.317 h

**Q.** What about the “Effect on elevated hepatic glucose production” value [5] of the same substance?
**A.** suppressed into the normal range

**Q.** And the “Time of maximum suppression of hepatic glucose production” value [5]?
**A.** 264 ± 31 min

**Q.** What about the “Minimum hepatic glucose production” value ([5]; basal 3.83±0.6) of the same substance?
**A.** 1.21 ± 0.2 mg/kg/min

**Q.** What about the “Blood glucose level of each subject” value ([6]; 0.2 U/kg s.c., normal range about 80-110 mg/dl) of the same substance?
**A.** lowered to a normal range

**Q.** What about the Hypoglycemia among subjects ([6]; five Type II subjects, 0.2 U/kg s.c., insulin: by approximately 300 minutes) of the same substance?
**A.** hypoglycemia nowhere evidenced

**Q.** And the “Plasma Glucose, Mean” value ([6]; mean of subjects with values, 360 min after injection)?
**A.** 102 mg/dL

**Q.** And the “Plasma Glucose, Mean” value ([6]; mean of subjects with values, 400 min after injection)?
**A.** 95 mg/dL

**Q.** And the “Plasma Glucose, Mean” value ([6]; mean of subjects with values, 440 min after injection)?
**A.** 92 mg/dL

**Q.** And the “Plasma Glucose, Mean” value ([6]; mean of subjects with values, 480 min after injection)?
**A.** 96 mg/dL

**Q.** And the “Plasma Glucose, Mean” value ([6]; mean of subjects, 0 min after injection)?
**A.** 245 mg/dL

**Q.** And the “Plasma Glucose, Mean” value ([6]; mean of subjects, 40 min after injection)?
**A.** 235 mg/dL

**Q.** What about the “Plasma Glucose, Mean” value ([6]; mean of subjects, 80 min after injection) of the same substance?
**A.** 221 mg/dL

**Q.** What about the “Plasma Glucose, Mean” value ([6]; mean of subjects, 120 min after injection) of the same substance?
**A.** 205 mg/dL

**Q.** What about the “Plasma Glucose, Mean” value ([6]; mean of subjects, 160 min after injection) of the same substance?
**A.** 188 mg/dL

**Q.** What about the “Plasma Glucose, Mean” value ([6]; mean of subjects, 280 min after injection) of the same substance?
**A.** 129 mg/dL

**Q.** What about the “Plasma Glucose, Mean” value ([6]; mean of subjects, 300 min after injection) of the same substance?
**A.** 113 mg/dL

**Q.** What about the “Plasma Glucose” value ([6]; 0 min after injection) of the same substance?
**A.** 290 mg/dL

**Q.** What about the “Plasma Glucose” value ([6]; 40 min after injection) of the same substance?
**A.** 282 mg/dL

**Q.** And the “Plasma Glucose” value ([6]; 80 min after injection)?
**A.** 272 mg/dL

**Q.** What about the “Plasma Glucose” value ([6]; 120 min after injection) of the same substance?
**A.** 250 mg/dL

**Q.** What about the “Plasma Glucose” value ([6]; 160 min after injection) of the same substance?
**A.** 230 mg/dL

**Q.** And the “Plasma Glucose” value ([6]; 200 min after injection)?
**A.** 200 mg/dL

**Q.** What about the “Plasma Glucose” value ([6]; 240 min after injection) of the same substance?
**A.** 183 mg/dL

**Q.** And the “Plasma Glucose” value ([6]; 280 min after injection)?
**A.** 152 mg/dL

**Q.** And the “Plasma Glucose” value ([6]; 300 min after injection)?
**A.** 127 mg/dL

**Q.** And the “Plasma Glucose” value ([6]; 360 min after injection)?
**A.** 101 mg/dL

**Q.** What about the “Plasma Glucose” value ([6]; 400 min after injection) of the same substance?
**A.** 82 mg/dL

**Q.** What about the “Plasma Glucose” value ([6]; 440 min after injection) of the same substance?
**A.** 77 mg/dL
